In PubChem BioAssay AID256 (DTP/NCI, 2004) one finds T/C data, which are given here for 16 compounds.

For this assay, the system named is CD2F1 mice, L1210 leukemia ip, survival T/C. Put plainly: NCI In Vivo Anticancer Drug Screen. Data for tumor model L1210 Leukemia (intraperitoneal) in CD2F1 (CDF1) mice. The conditions noted are these: higher = longer survival. Put shortly:
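Tumor-bearing mice (transplanted tumor) were split into treated and vehicle control groups, and the measured endpoint of each treated group was divided by that of its vehicle controls.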

The mark [1] stands for this setting: endpoint: mean survival time, dose: 100.0 mg/kg/injection, schedule: Q01DX001 (ip), vehicle: saline.
[2] abbreviates: endpoint: mean survival time, dose: 200.0 mg/kg/injection, schedule: Q01DX001 (ip), vehicle: saline.
Setting [3] is: endpoint: mean survival time, dose: 400.0 mg/kg/injection, schedule: Q01DX001 (ip), vehicle: saline.
Where [4] appears, read: endpoint: mean survival time, dose: 100.0 mg/kg/injection, schedule: Q04DX002 (ip), vehicle: saline with Tween-80.
[5] abbreviates: endpoint: mean survival time, dose: 50.0 mg/kg/injection, schedule: Q01DX009 (ip), vehicle: saline with Tween-80.

Molecules are shown by their SMILES. Several values for one entry are separate records, joined by “and”; a condition that tells them apart may be missing. Identical values can stand only once. Inconclusive results and toxic doses are left out.

As to `CC1=[C-]C=CS1=O.[C-]#[O+].[C-]#[O+].[C-]#[O+].[Mo].[c-]1[c-][c-][cH-][c-]1` (centres undefined), the T/C is 96 % of control (endpoint: mean survival time, dose: 9.38 mg/kg/injection, schedule: Q04DX002 (ip), vehicle: saline with Tween-80); 96 % of control (endpoint: mean survival time, dose: 18.7 mg/kg/injection, schedule: Q04DX002 (ip), vehicle: saline with Tween-80); 100 % of control (endpoint: mean survival time, dose: 37.5 mg/kg/injection, schedule: Q04DX002 (ip), vehicle: saline with Tween-80).

Turning to `CCc1ccc(NC(=O)c2ccc(C(=O)Nc3ccc(CC)cc3)cc2)cc1`, the T/C is 95 % of control under setting [1], 95 % of control under setting [2] and 104 % of control under setting [3].

As to `O=c1[nH]cc(S(=O)(=O)Nc2ccccc2)c(=O)[nH]1`, the T/C is 88 % of control (endpoint: mean survival time, dose: 100.0 mg/kg/injection, schedule: Q01DX001 (ip), vehicle: saline with Tween-80) and 96 % of control (endpoint: mean survival time, dose: 400.0 mg/kg/injection, schedule: Q01DX001 (ip), vehicle: saline with Tween-80).

For the compound `CC(=O)CC(=O)Nc1nccs1`, the T/C reads like this: (endpoint: mean survival time, dose: 25.0 mg/kg/injection, schedule: Q04DX002 (ip), vehicle: saline with Tween-80) 110 % of control; (endpoint: mean survival time, dose: 50.0 mg/kg/injection, schedule: Q04DX002 (ip), vehicle: saline with Tween-80) 107 % of control; under setting [4], 93 % of control.

For the compound `Nc1ncc(C2OC(CO)C(O)C2O)c(=O)[nH]1` (centres undefined), the T/C reads like this: (endpoint: median survival time, dose: 64.0 mg/kg/injection, schedule: Q01DX005 (ip), vehicle: saline) 160 % of control; (endpoint: median survival time, dose: 128.0 mg/kg/injection, schedule: Q01DX005 (ip), vehicle: saline) 162 % of control and 243 % of control; (endpoint: median survival time, dose: 256.0 mg/kg/injection, schedule: Q01DX005 (ip), vehicle: saline) 94 % of control.

`Cc1cc(Nc2ccc3c(c2)OCO3)c2cc3c(cc2n1)OCO3`: the T/C is 105 % of control (endpoint: median survival time, dose: 25.0 mg/kg/injection, schedule: Q01DX009 (ip), vehicle: Klucel (hydroxypropylcellulose) (HPC)); 121 % of control (endpoint: median survival time, dose: 50.0 mg/kg/injection, schedule: Q01DX009 (ip), vehicle: Klucel (hydroxypropylcellulose) (HPC)); 94 % of control (endpoint: median survival time, dose: 100.0 mg/kg/injection, schedule: Q01DX009 (ip), vehicle: Klucel (hydroxypropylcellulose) (HPC)).

Turning to `CC(C)(CO)C(O)C(=O)NCCS(=O)c1ccc(F)cc1` (centres undefined), the T/C was 100 % of control (endpoint: mean survival time, dose: 100.0 mg/kg/injection, schedule: Q04DX003 (ip), vehicle: other); 96 % of control (endpoint: mean survival time, dose: 200.0 mg/kg/injection, schedule: Q04DX003 (ip), vehicle: other); 100 % of control (endpoint: mean survival time, dose: 400.0 mg/kg/injection, schedule: Q04DX003 (ip), vehicle: other).

As for `N=C(N)c1ccc(OCCCCOc2ccc(NC(=O)Nc3cc(S(=O)(=O)F)ccc3Cl)cc2)cc1`, the T/C (endpoint: mean survival time, dose: 75.0 mg/kg/injection, schedule: Q01DX001 (ip), vehicle: saline with Tween-80) is 95 % of control; the T/C (endpoint: mean survival time, dose: 150.0 mg/kg/injection, schedule: Q01DX001 (ip), vehicle: saline with Tween-80) is 90 % of control; the T/C (endpoint: mean survival time, dose: 300.0 mg/kg/injection, schedule: Q01DX001 (ip), vehicle: saline with Tween-80) is 95 % of control.

With `CCC(=O)c1cc(O)ccc1O`, the T/C (endpoint: mean survival time, dose: 50.0 mg/kg/injection, schedule: Q01DX009 (ip), vehicle: other) was 109 % of control; the T/C under setting [1] is 101 % of control; the T/C (endpoint: mean survival time, dose: 100.0 mg/kg/injection, schedule: Q01DX009 (ip), vehicle: other) is 109 % of control; the T/C under setting [2] is 101 % of control; the T/C (endpoint: mean survival time, dose: 200.0 mg/kg/injection, schedule: Q01DX009 (ip), vehicle: other) is 108 % of control; the T/C under setting [3] was 102 % of control.

On to `Nc1nc2ccc(NCc3ccc(C(=O)NC(CCC(=O)O)C(=O)O)cc3)cc2c(=O)[nH]1` (centres undefined), for which the T/C reads like this: (endpoint: median survival time, dose: 6.25 mg/kg/injection, schedule: Q01DX009 (ip), vehicle: saline with Tween-80) 100 % of control and 101 % of control; (endpoint: median survival time, dose: 12.5 mg/kg/injection, schedule: Q01DX009 (ip), vehicle: saline with Tween-80) 100 % of control and 108 % of control (2×); (endpoint: median survival time, dose: 25.0 mg/kg/injection, schedule: Q01DX009 (ip), vehicle: saline with Tween-80) 115 % of control and 118 % of control and 119 % of control; (endpoint: median survival time, dose: 50.0 mg/kg/injection, schedule: Q01DX009 (ip), vehicle: saline with Tween-80) 155 % of control.

Regarding `CC(C)=CCCc1ccc2c(c1)C(=O)c1ccccc1C2=O`, the T/C by setting is: under setting [4], 88 % of control; (endpoint: mean survival time, dose: 200.0 mg/kg/injection, schedule: Q04DX002 (ip), vehicle: saline with Tween-80) 92 % of control; (endpoint: mean survival time, dose: 400.0 mg/kg/injection, schedule: Q04DX002 (ip), vehicle: saline with Tween-80) 96 % of control.

Regarding `CC(C)(CN=Cc1ccccc1[O-])N=Cc1ccccc1[O-].[O]=[V]`, the T/C by setting is: (endpoint: mean survival time, dose: 12.5 mg/kg/injection, schedule: Q01DX009 (ip), vehicle: saline with Tween-80) 89 % of control; (endpoint: mean survival time, dose: 25.0 mg/kg/injection, schedule: Q01DX009 (ip), vehicle: saline with Tween-80) 96 % of control; under setting [5], 91 % of control; (endpoint: mean survival time, dose: 100.0 mg/kg/injection, schedule: Q04DX003 (ip), vehicle: saline with Tween-80) 100 % of control; (endpoint: mean survival time, dose: 200.0 mg/kg/injection, schedule: Q04DX003 (ip), vehicle: saline with Tween-80) 88 % of control.

`S=C(NCc1ccccc1)Nc1ncn[nH]1`: the T/C is, setting by setting: (endpoint: mean survival time, dose: 12.5 mg/kg/injection, schedule: Q01DX001 (ip), vehicle: carboxymethylcellulose (CMC)) 97 % of control; (endpoint: mean survival time, dose: 25.0 mg/kg/injection, schedule: Q01DX001 (ip), vehicle: carboxymethylcellulose (CMC)) 89 % of control; (endpoint: mean survival time, dose: 50.0 mg/kg/injection, schedule: Q01DX001 (ip), vehicle: carboxymethylcellulose (CMC)) 86 % of control; (endpoint: mean survival time, dose: 100.0 mg/kg/injection, schedule: Q01DX001 (ip), vehicle: carboxymethylcellulose (CMC)) 86 % of control.

As for `O=C1OC2(c3ccccc31)c1ccccc1-c1ccccc12`, the T/C was 97 % of control under setting [5]; 100 % of control (endpoint: mean survival time, dose: 100.0 mg/kg/injection, schedule: Q01DX009 (ip), vehicle: saline with Tween-80); 100 % of control (endpoint: mean survival time, dose: 200.0 mg/kg/injection, schedule: Q01DX009 (ip), vehicle: saline with Tween-80).

As to `CC(C)(C)N1OC1c1ccccc1` (centres undefined), the T/C under setting [1] was 103 % of control, the T/C under setting [2] was 105 % of control and the T/C under setting [3] was 97 % of control.

As to `CCCCNc1ncnc2snnc12`, the T/C was 101 % of control (endpoint: mean survival time, dose: 100.0 mg/kg/injection, schedule: Q01DX001 (ip), vehicle: Klucel (hydroxypropylcellulose) (HPC)); 98 % of control (endpoint: mean survival time, dose: 200.0 mg/kg/injection, schedule: Q01DX001 (ip), vehicle: Klucel (hydroxypropylcellulose) (HPC)); 104 % of control (endpoint: mean survival time, dose: 400.0 mg/kg/injection, schedule: Q01DX001 (ip), vehicle: Klucel (hydroxypropylcellulose) (HPC)).
